This passage reports Kd results from ChEMBL document CHEMBL6153149, “Cyclic Peptides Targeting Granzyme B: Potential Applications as PET Imaging Agents” (ACS Med Chem Lett, 2025).

Each structure is given as a SMILES string. Bridge positions count the residues as written; N and C are the ends. Square brackets hold non-standard residues; d marks the D form. Peptide text beside a SMILES is read from it. * marks the point of attachment. X1 = O=C(O)CN1CCN(CC(=O)O)CC(Cc2ccc(NC(=S)*)cc2)N(CC(=O)O)CC1; NMeF = CN[C@@H](Cc1ccccc1)C(=O)O

The experiment concerns the target Granzyme B (Homo sapiens, UniProt P10144). The experiment is described as follows: Binding affinity to human granzyme B assessed as equilibrium dissociation constant by SPR method. (In general: SPR reads the build-up and loss of mass on a sensor chip optically.)

Granzyme B, sequence (P10144 whole entry): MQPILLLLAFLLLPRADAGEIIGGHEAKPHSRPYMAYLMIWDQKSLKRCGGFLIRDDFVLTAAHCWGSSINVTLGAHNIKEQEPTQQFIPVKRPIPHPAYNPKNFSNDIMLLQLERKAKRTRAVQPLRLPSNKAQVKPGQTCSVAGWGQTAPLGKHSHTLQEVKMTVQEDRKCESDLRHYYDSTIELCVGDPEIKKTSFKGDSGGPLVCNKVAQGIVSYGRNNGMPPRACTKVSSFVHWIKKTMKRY

As to `CC(C)[C@@H]1NC(=O)[C@H](CC(=O)O)NC(=O)[C@H](Cc2ccc(O)cc2)NC(=O)[C@H](Cc2ccc(O)cc2)NC(=O)[C@H](Cc2ccccc2)N(C)C(=O)[C@H](Cc2ccccc2)N(C)C(=O)[C@H](Cc2ccccc2)NC(=O)CSC[C@@H](C(=O)NCC(=O)NCC(=O)N[C@@H](CCCCNC(=S)Nc2ccc(CC3CN(CC(=O)O)CCN(CC(=O)O)CCN3CC(=O)O)cc2)C(N)=O)NC(=O)[C@H](Cc2c[nH]cn2)NC(=O)[C@H](Cc2ccccc2)N(C)C(=O)[C@H](Cc2ccc(O)cc2)NC(=O)[C@H](C(C)C)NC(=O)[C@H](CC(=O)O)NC(=O)[C@H](C(C)C)NC(=O)[C@H](CC(=O)O)NC1=O` (stereo partly specified) ({CH2CO}-F[NMeF][NMeF]YYDVDVDVY[NMeF]HCGGK(X1)-NH2; thioether N-15), the Kd is 1.1 nM.

A word on the Kd: it is the free concentration of one partner at which half of the binding sites on the other are occupied at equilibrium, for simple one-to-one binding.
